From article PMC9381947 (Antiviral Research, 2022)
Entries after “also recorded” stand apart in the source; their conditions may differ. Like-named read-outs stand apart in the source and are kept apart here.

Columns and labels:
[1] = target: T1, SARS-CoV-2 NSP13 helicase (Severe acute respiratory syndrome coronavirus 2, UniProt P0DTD1); test: biochemical; conditions: for NSP13 helicase inhibition relative to PUG: compared with PUG; for inhibition at 20 µM: read-out: inhibitory activity against NSP13, confirmation screen
[2] = target: T1, SARS-CoV-2 NSP13 helicase; test: Gel-based DNA unwinding assay; format: biochemical; conditions: PUG at concentrations over 1 μM
NSP13/DNA complex = NSP13/DNA complex (Severe acute respiratory syndrome coronavirus 2, UniProt P0DTD1); test: Electrophoretic mobility shift assay; format: biochemical, SARS-CoV-2; conditions: pre-incubation of NSP13 with compound, FAM-labeled 5ˊ flap DNA
[3] = target: SARS-CoV-2 NSP13 ATPase activity (Severe acute respiratory syndrome coronavirus 2, UniProt P0DTD1); test: Luciferase-coupled ATP assay; format: biochemical
SARS-CoV-2 NSP13 = SARS-CoV-2 NSP13 (Severe acute respiratory syndrome coronavirus 2, UniProt P0DTD1); test: Surface plasmon resonance; format: binding; conditions: SPR, NSP13 coupled to CM5 chip
[4] = test system: human adenovirus (HAdV) type 7 (HAdV-7); test: Antiviral assay in A549 cells; conditions: 48 h, qRT-PCR, listed as PUG
[5] = IC50, DNA unwinding activity of NSP13, text and figures
[6] = read-out: IC50 against NSP13 helicase activity, Table 1
[7] = IC50 against NSP13 helicase activity, Table 1
[8] = read-out: IC50 against NSP13 helicase activity

O=C1OC[C@H]2OC(O)[C@H](O)[C@@H](O)[C@@H]2OC(=O)c2cc(O)c(O)c(O)c2-c2c(O)c(O)c3oc(=O)c4c(c(O)c(O)c5oc(=O)c2c3c54)-c2c1cc(O)c(O)c2O (mixture of isomers) [PUL, punicalin]
IC50 [1, 5]: ~540 nM | NSP13 helicase inhibition relative to PUG [1]: comparable inhibitory activity | helicase activity of NSP13 in gel-based DNA unwinding assay [2]: slightly weak inhibitory effect than PUG | NSP13/DNA complex formation (EMSA) (NSP13/DNA complex): reduced the complex formation in a concentration-dependent manner

O=c1cc(-c2ccccc2)oc2cc(O)c(O)c(O)c12 [Baicalein, reference compound]
inhibition at 20 µM [1]: > 70%

O=C(N/N=C/c1cc(O)c(O)cc1O)c1cc2ccccc2cc1O [Dyngo-4a, reference compound]
IC50 [1, 6]: 630 nM

O=c1oc2c(O)c(O)cc3c(=O)oc4c(O)c(O)cc1c4c23 [EA, ellagic acid]
IC50 ([1]; IC50, DNA unwinding activity of NSP13, text): ~2800 nM | NSP13 helicase inhibition relative to PUG [1]: about six times weaker | inhibition of ATP hydrolysis by NSP13 ([3]; 10 μM ATP): much weaker inhibition | NSP13/DNA complex formation (EMSA) (NSP13/DNA complex): reduced the complex formation in a concentration-dependent manner; also recorded: much weaker inhibition

Oc1cc(O)c2c(c1)O[C@H](c1cc(O)c(O)c(O)c1)[C@H](O)[C@H]2c1c(O)cc(O)c2c1O[C@H](c1cc(O)c(O)c(O)c1)[C@H](O)[C@H]2c1c(O)cc(O)c2c1O[C@H](c1cc(O)c(O)c(O)c1)[C@H](O)C2 [Katacine]
IC50 [1, 7]: 5980 nM

CC(C)[C@H](NC(=O)CCCCCN1C(=O)C=CC1=O)C(=O)N[C@@H](CCCNC(N)=O)C(=O)Nc1ccc(COC(=O)Oc2ccc([N+](=O)[O-])cc2)cc1 [MC-Val-Cit-PABC-PNP]
IC50 [1, 8]: 2450 nM

O=c1c(O)c(-c2cc(O)c(O)c(O)c2)oc2cc(O)cc(O)c12 [Myricetin, reference compound]
inhibition at 20 µM [1]: > 70%

O=C1O[C@@H]2[C@@H](OC(=O)c3cc(O)c(O)c(O)c3-c3c1cc(O)c(O)c3O)[C@H](O)O[C@@H]1COC(=O)c3cc(O)c(O)c(O)c3-c3c(O)c(O)c4oc(=O)c5c(c(O)c(O)c6oc(=O)c3c4c65)-c3c(cc(O)c(O)c3O)C(=O)O[C@@H]21 [Punicalagin, 2,3-hexahydroxydiphenoyl-gallagyl-D-glucose]
IC50 [1, 5]: 427 nM | IC50 [1, 7]: 430 nM | helicase activity of NSP13 in gel-based DNA unwinding assay [2]: nearly abolished | Kd (SARS-CoV-2 NSP13): 21.6 nM | Km of NSP13 ATPase ([3]; with increasing concentrations of PUG): increased | antiviral effect against HAdV-7 [4]: did not show detectable antiviral effects

CC(C)c1cc2c(c(O)c1O)[C@@]13CCCC(C)(C)[C@@H]1[C@H](OC3=O)[C@H]2O [Rosmanol]
IC50 [1, 7]: 8930 nM

O=c1cc(-c2ccc(O)cc2)oc2cc(O)c(O)c(O)c12 [Scutellarein, reference compound]
inhibition at 20 µM [1]: > 70%

O=C(O)CSc1cc(NS(=O)(=O)c2ccc(Br)cc2)c2ccccc2c1O [UMI-77, reference compound]
IC50 [1, 8]: 4380 nM

O=C([O-])c1cc(=O)[nH]c(=O)[nH]1.O=C([O-])c1cc(=O)[nH]c(=O)[nH]1.[Zn+2] [Zinc Orotate]
IC50 [1, 6]: 4120 nM

Bismuth subsalicylat [reference compound]
inhibitory activity against NSP13, confirmation screen ([1]; 20 µM): more than 70%

Tannic acid
IC50 [1, 6]: 1250 nM
